Reference: US20100292325A1, “P-MENTHAWE-3-CARBOXYLIC ACID ESTERS TO TREAT AIRWAYS DISEASES” (priority 2007, published 2010)

How the values were obtained:
[1] = system: oropharynx (back of the mouth); experiment: Bioassay: compound applied by glass rod onto the posterior dorsal tongue, oral sensations noted; type: in vivo, human; details: for sensation from the oral cavity: 2 mg on the posterior third of the tongue; for cooling qualities: in vivo
Method: CPS-004 and CPS-030 are liquids at room temperatures. These compounds were tested by placing 0, 2, 5 and 8 mg on a 6-inch glass rod and applying these compounds onto the posterior third of the dorsal surface of the tongue. After depositing the test substance, the subject was instructed to keep the mouth closed and allow the test substance to distribute to the back of the mouth (orpharynx). The presence and duration of sensations from the oral cavity was then noted.

TRP-M8 = TRP-M8 (Homo sapiens, UniProt Q7Z2W7); details: cited from earlier work
Sequence of TRP-M8 (Q7Z2W7 whole entry, species assumed): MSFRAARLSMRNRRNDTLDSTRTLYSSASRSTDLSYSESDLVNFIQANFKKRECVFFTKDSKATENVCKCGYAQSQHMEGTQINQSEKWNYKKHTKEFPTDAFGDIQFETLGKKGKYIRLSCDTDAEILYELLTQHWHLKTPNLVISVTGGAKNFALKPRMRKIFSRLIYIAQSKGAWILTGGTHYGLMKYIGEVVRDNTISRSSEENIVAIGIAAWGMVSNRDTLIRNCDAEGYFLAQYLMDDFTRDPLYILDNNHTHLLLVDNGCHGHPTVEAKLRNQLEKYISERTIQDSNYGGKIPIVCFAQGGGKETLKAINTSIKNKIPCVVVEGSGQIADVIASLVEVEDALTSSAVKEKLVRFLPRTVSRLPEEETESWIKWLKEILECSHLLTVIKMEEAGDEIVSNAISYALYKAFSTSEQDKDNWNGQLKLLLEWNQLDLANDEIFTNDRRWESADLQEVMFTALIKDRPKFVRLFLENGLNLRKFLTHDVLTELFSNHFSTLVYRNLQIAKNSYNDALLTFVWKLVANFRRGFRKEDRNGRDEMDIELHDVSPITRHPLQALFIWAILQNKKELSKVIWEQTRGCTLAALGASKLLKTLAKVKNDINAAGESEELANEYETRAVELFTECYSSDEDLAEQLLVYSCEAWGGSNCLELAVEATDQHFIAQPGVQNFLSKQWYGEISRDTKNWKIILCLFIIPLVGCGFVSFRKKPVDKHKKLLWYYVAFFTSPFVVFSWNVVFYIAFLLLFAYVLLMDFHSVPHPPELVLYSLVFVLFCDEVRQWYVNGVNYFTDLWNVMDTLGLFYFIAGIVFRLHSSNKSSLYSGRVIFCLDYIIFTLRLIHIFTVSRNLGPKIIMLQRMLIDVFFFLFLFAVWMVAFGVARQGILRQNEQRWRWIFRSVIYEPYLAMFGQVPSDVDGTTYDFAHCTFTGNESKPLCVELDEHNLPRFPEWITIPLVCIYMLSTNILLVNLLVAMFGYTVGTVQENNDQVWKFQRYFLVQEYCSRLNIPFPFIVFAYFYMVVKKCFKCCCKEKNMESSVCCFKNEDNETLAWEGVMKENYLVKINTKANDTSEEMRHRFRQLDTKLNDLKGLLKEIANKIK

skin = details: in vivo; cited from earlier work

Q: Which results are given for `CC(C)[C@@H]1CC[C@@H](C)C[C@H]1C(=O)OCCO` [CPS-004]?
A: sensation from the oral cavity [1]: cooling effect on the back of the mouth; cooling qualities [1]: good cooling qualities

Q: For `CC(C)[C@@H]1CC[C@@H](C)C[C@H]1C(=O)OCC(O)CO` (stereo partly shown) [CPS-030], which “sensation from the oral cavity” value [1] is on record?
A: The value was “cooling effect on the back of the mouth”.

Q: What about the taste ([1]; applied onto the tongue) of the same compound?
A: Its taste is “acrid taste which was objectionable”.

Q: What about the cooling qualities [1] of the same compound?
A: Its cooling qualities is “good cooling qualities”.

Q: For `COc1ccc(NC(=O)[C@@H]2C[C@H](C)CC[C@H]2C(C)C)cc1` [WS-12], which “potency on TRP-M8 relative to menthol” value (TRP-M8) is on record?
A: The value was 2000 times.

Q: What about the “cooling action on the skin” value (skin) of the same compound?
A: Its value is “does not produce very much cooling action on the skin”.
